Results reported in patent publication US12673987B2, “Method to identify compounds useful to treat dysregulated lipogenesis, diabetes, and related disorders” (President and Fellows of Harvard College, priority 2017, dated 2026).

Key:
[1] = test system: HepG2 cells; experiment: De novo lipogenesis (DNL) in HepG2 cells treated with conditioned media from lipolysis-stimulated adipocytes (3H2O incorporation); format: cell-based, human
Description: Murine 3T3L1 adipocytes and human HepG2 cells were obtained from the ATCC. 3T3L1 adipocytes were maintained in Dulbecco Modified Eagle Medium (DMEM) containing 25 mM glucose (Gibco) supplemented with 10% cosmic calf serum (CCS), and adipocyte differentiation was induced as previously described (Ntambi et al., (1988) J. Biol. Chem. 263, 17291-17300). Briefly, preadipocytes were grown in 10 cm dishes until they are fully confluent. At confluent state, 10% bovine calf serum (BCS) containing DMEM medium was replaced with 10% fetal bovine serum (FBS) containing DMEM for two days. Differentiation was induced by FBS medium containing 5 μg/ml Insulin (Sigma, 15500), 0.5 mM IBMX (Sigma, 15879), 1 μM Dexamethasone (Sigma, D4902), and 1 μM Rosiglitazone (Cayman Chemical, 71740). After two days, medium was replaced with FBS medium containing 5 μg/ml Insulin every other day until the cells were completely differentiated at day 10. For siRNA experiment, differentiated 3T3-L1 adipocytes were transfected using Amaxa Nucleofector Kit L (Lonza, VCA-1005) according to the manufacturer's protocol. Briefly, differentiated adipocytes were trypsinized and centrifuged at 100 g for 10 minutes. 3×10^6 cells per 6-well were transfected with 120 pmol/sample Control siRNA (Dharmacon, D-001810-10) or mouse aP2 siRNA (Dharmacon, L-042923-01) using Nucleofector Program A-33. Transfected cells were seeded in Collagen I coated 6-well plates (Corning, 356400). Conditioned media for stimulation of HepG2 cells were prepared in DMDM 3.3 mM glucose supplemented with 0.5% FBS before (basal) and after (lipolysis stimulated) the lipolysis stimulation with 1 mM IBMX. For explant studies, adipose tissue was removed from 8-12 weeks-old littermate mice, minced and washed 5× with DMEM high glucose supplemented with 10% CCS. Twenty pieces of adipose tissue were placed into 6-well plates in 2 ml DMEM high glucose with 10% CCS and incubated for 1 hr. Then conditioned media for stimulation of HepG2 cells were prepared in […] 3.3 mM glucose supplemented with 0.5% FBS before (basal) and after (lipolysis stimulated) the lipolysis stimulation with 1 mM 3-isobutyl-1-methylxanthine (IBMX). For antibody neutralization, 10 nM (for 3T3L1 cells) or 20 nM (for adipose tissue explant) of IgG, CA33, or CA15 antibody was added to DMDM 3.3 mM glucose supplemented with 0.5% FBS was used for the preparation of “basal” and “lipolysis stimulated” conditioned media.
(§1) For maintenance, HepG2 cells were cultured in DMEM containing 5.5 mM glucose (Gibco) supplemented with 10% FBS. For DNL and p-AMPK analysis, HepG2 cells were cultured in DMDM 3.3 mM glucose supplemented with 0.5% FBS, seeded 2×10^5 cells in 12 well plate or 4×10^5 cells in 6 well plate for DNL analysis and p-AMPK analysis, respectively.
For DNL analysis, after overnight culture, the cells were stimulated with conditioned media or 2-AG/aP2 complex and […] of ^3H2O were added 30 min after the stimulation (Gnoni et al., (1985) Biochem. & Biophysical Res. Comm. 128, 525-530; Lowenstein et al., Meth. Enzym. 35, 279-287). […] The cell lysate was analyzed for protein concentration and total lipid was extracted by Dole's extraction method (Dole et al., (1960) J. Biol. Chem. 235, 2595-2599). ^3H incorporation into de novo synthesized lipids were analyzed by scintillation count and calculated as count per μg protein. […] AMPK phosphorylation was determined by western blot (see below).

[2] = target: T1, aP2 (Mus musculus, UniProt P04117); experiment: Microscale thermophoresis assay; format: binding; parameters: His tag (cleaved yes); made in house; details: fluorescence labeled purified aP2 protein
T1 sequence (P04117 1-132): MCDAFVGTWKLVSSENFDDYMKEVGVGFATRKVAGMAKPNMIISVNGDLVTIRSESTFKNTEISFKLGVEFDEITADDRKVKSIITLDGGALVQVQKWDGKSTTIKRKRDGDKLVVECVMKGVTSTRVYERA
Description: It has been reported that both 2-AG and AEA have similar affinity for the CB1 receptor (Stella et al., (1997) Nature 388, 773-778; Felder et al., (1993) PNAS 90, 7656-7660), and only the level of 2-AG in serum is regulated in obesity (Bluher et al., (2006) Diabetes 55, 3053-3060). The potential interaction between 2-AG and aP2 was tested. […] Finally, to resolve the mechanism and structural determinants of this interaction, aP2 and 2-AG was co-crystallized, confirming the ability of these two molecules to bind. In Ca superposition, the root mean square deviation (RMSD) between mouse 2-AG/FABP4 complex and apo mouse FABP4 structure was about 0.548 A (see FIG. 3G). […] Due to steric hindrance of the acyl chain of 2-AG, the Phe57 side chain was modelled as open position in the complex structure. The polar head group of 2-AG was stabilized by hydrogen bond interactions with R127, R107, Y129 and S54 of FABP4 (see FIG. 3H).

[3] = test system: HepG2 cells; experiment: DNL in HepG2 cells stimulated with 2-AG/aP2 complex (3H2O incorporation); format: cell-based, human; details: for stimulation of DNL in HepG2 cells: final concentration in culture media 10 nM
Description: as §1
For DNL analysis, after overnight culture, the cells were stimulated with conditioned media or 2-AG/aP2 complex and […] of ^3H2O were added 30 min after the stimulation (Gnoni et al., (1985) Biochem. & Biophysical Res. Comm. 128, 525-530; Lowenstein et al., Meth. Enzym. 35, 279-287). After 2 hours of incubation with ^3H2O, cells were washed with PBS and lysed with 0.1N NaOH. The cell lysate was analyzed for protein concentration and total lipid was extracted by Dole's extraction method (Dole et al., (1960) J. Biol. Chem. 235, 2595-2599). ^3H incorporation into de novo synthesized lipids were analyzed by scintillation count and calculated as count per μg protein. For p-AMPK analysis, after overnight culture, cells were stimulated with conditioned media or 2-AG/aP2 complex for 30 min. The cells were washed twice with ice cold PBS and lysed with ice cold RIPA buffer (Cell Signaling) supplemented with 1 mM PMSF. AMPK phosphorylation was determined by western blot (see below).
(§2) 10 or 20 μM delipidated mouse recombinant aP2 protein with or without 10 μM 2-AG were diluted in 50 mM potassium phosphate buffer (pH 7.4) and incubated at 37C for overnight. The ratio of aP2 binding to 2-AG was determined by 8-Anilinonaphthalene-1-sulfonic acid (ANS) assay. For antibody neutralization, IgG, CA33, or CA15 antibody at final concentration of 20 μM was added to 50 mM potassium phosphate buffer (pH 7.4) only or to delipidated mouse recombinant aP2 protein (final 10 μM) with 2-AG (final 10 μM) solution in 50 mM potassium phosphate buffer (pH 7.4) and incubated at 37° C. overnight. Final concentration in culture media for aP2, 2-AG, and antibodies were 10, 10, and 20 nM, respectively.

[4] = test system: AMPK(Thr172); experiment: AMPK phosphorylation in HepG2 cells by western blot; format: cell-based, human; details: 5 μM alone
Description: as §1
For DNL analysis, after overnight culture, the cells were stimulated with conditioned media or 2-AG/aP2 complex and […] of ^3H2O were added 30 min after the stimulation (Gnoni et al., (1985) Biochem. & Biophysical Res. Comm. 128, 525-530; Lowenstein et al., Meth. Enzym. 35, 279-287). After 2 hours of incubation with ^3H2O, cells were washed with PBS and lysed with 0.1N NaOH. The cell lysate was analyzed for protein concentration and total lipid was extracted by Dole's extraction method (Dole et al., (1960) J. Biol. Chem. 235, 2595-2599). ^3H incorporation into de novo synthesized lipids were analyzed by scintillation count and calculated as count per μg protein. […] AMPK phosphorylation was determined by western blot (see below).
The antibodies used were rabbit anti-pAMPK (Cell Signaling), anti-actin HRP conjugated (Abcam), in-house anti-aP2 (H3) HRP conjugated antibodies. For quantification, Western blot images were captured and band intensities were analyzed using ImageJ software.

[5] = target: T1, aP2; experiment: 8-Anilinonaphthalene-1-sulfonic acid (ANS) binding assay; parameters: His tag (cleaved yes); made in house; host or cells: Escherichia coli BL21DE3 (Pet28a plasmid)
Description: as §2
aP2 or aP2/lipid solution (final aP2 concentration 1 μM) and ANS (final 5 μM) was diluted in 50 mM potassium phosphate buffer (pH 7.4) and fluorescence Ex/Em 375/475 was measured.

[6] = test system: 3T3L1 adipocytes; experiment: FFA release from 3T3L1 adipocytes; format: cell-based, murine; details: adipocytes pretreated with 10 μM, starting 48 hours before collection of conditioned media
Description: (§3) Murine 3T3L1 adipocytes and human HepG2 cells were obtained from the ATCC. 3T3L1 adipocytes were maintained in Dulbecco Modified Eagle Medium (DMEM) containing 25 mM glucose (Gibco) supplemented with 10% cosmic calf serum (CCS), and adipocyte differentiation was induced as previously described (Ntambi et al., (1988) J. Biol. Chem. 263, 17291-17300). Briefly, preadipocytes were grown in 10 cm dishes until they are fully confluent. At confluent state, 10% bovine calf serum (BCS) containing DMEM medium was replaced with 10% fetal bovine serum (FBS) containing DMEM for two days. Differentiation was induced by FBS medium containing 5 μg/ml Insulin (Sigma, 15500), 0.5 mM IBMX (Sigma, 15879), 1 μM Dexamethasone (Sigma, D4902), and 1 μM Rosiglitazone (Cayman Chemical, 71740). After two days, medium was replaced with FBS medium containing 5 μg/ml Insulin every other day until the cells were completely differentiated at day 10. For siRNA experiment, differentiated 3T3-L1 adipocytes were transfected using Amaxa Nucleofector Kit L (Lonza, VCA-1005) according to the manufacturer's protocol. […]
Triglyceride (TG) levels were analyzed using triglyceride assay kit (Randox) and Cholesterol levels were analyzed using by Infinity cholesterol kid (Thermo Scientific). FFA levels in culture media were measured using a NEFA-HR2 kit (Wako) following the manufacturer's instructions.

[7] = test system: 3T3L1 adipocytes; experiment: aP2 secretion from 3T3L1 adipocytes into conditioned media; format: cell-based, murine; details: adipocytes pretreated with 10 μM, starting 48 hours before collection of conditioned media
Description: as §3, with “protocol. Briefly, differentiated adipocytes were trypsinized and centrifuged at 100 g for 10 minutes. 3×10^6 cells per 6-well were transfected with 120 pmol/sample Control siRNA (Dharmacon, D-001810-10) or mouse aP2 siRNA (Dharmacon, L-042923-01) using Nucleofector Program A-33.” for “protocol.”

Molecule: Cc1c(C(=O)NN2CCCCC2)nn(-c2ccc(Cl)cc2Cl)c1-c1ccc(Cl)cc1 [Rimonabant]
- induction of DNL by conditioned media from lipolysis-stimulated 3T3L1 adipocytes ([1]; HepG2 cells treated with 1 μM): completely inhibited induction of DNL

Molecule: CCCCCCCC/C=C\CCCCCCCC(=O)O [oleate]
- Kd of direct binding to aP2 [2]: an affinity similar to that observed for oleate

Molecule: CCCCC/C=C\C/C=C\C/C=C\C/C=C\CCCC(=O)OC(CO)CO [2-AG, 2-Arachidonoylglycerol]
- stimulation of DNL in HepG2 cells [3]: nor 2-AG alone stimulated DNL
- dephosphorylation of AMPK(Thr172) in HepG2 cells [4]: same level
- binding of 2-AG to aP2 by ANS assay ([5]; after overnight incubation of delipidated recombinant aP2 with 2-AG): confirmed binding
- binding affinity of aP2 to the lipid, substrate competition with ANS ([5]; compared with mall (Fabp5)): same affinity as does mall

Molecule: CCc1c(-c2ccccc2)c(-c2ccccc2)nn1-c1ccccc1-c1cccc(OCC(=O)O)c1 [BMS-309403]
- ability of conditioned media from lipolysis-stimulated 3T3L1 adipocytes to induce DNL in HepG2 cells ([1]; 3T3L1 adipocytes pretreated with 10 μM, starting 48 hours before collection): completely inhibited
- effect on DNL in HepG2 cells treated with conditioned media from Fabp-deficient adipocytes ([1]; Fabp-deficient adipocytes pre-incubated with 10 μM): no additional or Fabp-independent effect on DNL
- FFA secretion [6]: did not alter
- aP2 secretion [7]: did not alter
- effect of 2-AG/aP2 complex on DNL in HepG2 cells ([3]; added during 2-AG/aP2 complex formation): eliminated the effect of 2-AG/aP2 complex on DNL

B1: CA33: therapeutically active aP2 monoclonal antibody; the rabbit 909 heavy and light chain comprise CA33 (antibody, V domains shown)
VH: QSVEESGGRLVTPGTPLTLTCTVSGFSLSTYYMSWVRQAPGKGLEWIGIIYPSGSTYCASWAKGRFTISKASTTVDLKITSPTTEDTATYFCARPDNDGTSGYLSGFGLWGQGTLVTVSS
VL: DVVMTQTPASVSEPVGGTVTIKCQASEDISRYLVWYQQKPGQPPKRLIYKASTLASGVPSRFKGSGSGTDFTLTISDLECDDAATYYCQCTYGTYAGSFFYSFGGGTEVVVE
modifications: Rabbit Ab 909 VH region; Rabbit Ab 909 VL-region
- induction of DNL by conditioned media from lipolysis stimulated adipocytes in HepG2 cells ([1]; antibody (10 nM for 3T3L1 cells) added to conditioned media, IBMX lipolysis stimulation): completely prevented the induction of DNL
- ability of 2-AG/aP2 complex to regulate DNL in HepG2 cells ([3]; complex formed in the presence of antibody (20 μM, final 20 nM in culture media)): lost its ability to regulate DNL

B2: aP2: delipidated mouse recombinant aP2 protein (adipocyte lipid binding protein) (protein)
chain: CDAFVGTWKLVSSENFDDYMKEVGVGFATRKVAGMAKPNMIISVNGDLVTIRSESTFKNTEISFKLGVEFDEITADDRKVKSIITLDGGALVQVQKWDGKSTTIKRKRDGDKLVVECVMKGVTSTRVYERA
- rescue of DNL in HepG2 cells ([1]; added to conditioned media from 3T3L1 adipocytes with siRNA-mediated aP2 suppression): not sufficient to rescue DNL
- stimulation of DNL in HepG2 cells [3]: neither aP2 nor 2-AG alone stimulated DNL
